Experimental data published in ChEMBL document CHEMBL4673337, “Phenolic Constituents of the Roots of Rhamnoneuron balansae with Senolytic Activity” (J Nat Prod, 2020).
Active and inactive are the calls of the source. The rule behind the calls is not given here.

What was measured:
NHDF [1] = experiment: Senolytic activity in 35 passages senescent human dermal fibroblast cells assessed as reduction cell viability at 20 uM after 3 days by MTT assay relative to control; format: functional
NHDF [2] = experiment: Cytotoxicity against human dermal fibroblast assessed as reduction in cell viability at 20 uM after 3 days by MTT assay; format: cell-based; conditions: 72 h, time 3 day
[3] = target: T1, Cyclin-dependent kinase inhibitor 2A (Homo sapiens) (UniProt P42771); experiment: Inhibition of GFP-tagged p16INK4A (unknown orgin) expressed in human dermal fibroblast at 20 uM after 24 hrs by renilla/firefly dual-luciferase reporter assay relative to control; format: cell-based; conditions: NHDF
T1 sequence (whole entry): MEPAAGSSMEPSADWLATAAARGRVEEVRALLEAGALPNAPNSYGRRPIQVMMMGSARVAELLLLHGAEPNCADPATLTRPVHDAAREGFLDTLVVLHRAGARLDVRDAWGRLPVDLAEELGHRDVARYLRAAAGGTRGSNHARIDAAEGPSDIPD

## O=C1C[C@@H](CCc2ccc(O)cc2)Oc2ccccc21
NHDF [1]; time 3.0 day
  Activity: Active
NHDF [2]
  Activity: Non-Toxic

## O=C1c2c(cc(O[C@@H]3O[C@H](CO)[C@@H](O)[C@H](O)[C@H]3O)c3c2O[C@H](c2ccc(O)cc2)[C@H]3c2cc(O)cc(O)c2)O[C@H](c2ccc(O)c(O)c2)[C@H]1O
NHDF [2]
  Activity: Non-Toxic

## O=C1C[C@@H](CCc2cccc(O)c2)Oc2ccccc21
NHDF [2]
  Activity: Non-Toxic

## O=C1c2c(cc(O[C@@H]3O[C@H](CO)[C@@H](O)[C@H](O)[C@H]3O)c3c2O[C@H](c2ccc(O)cc2)[C@H]3c2cc(O)cc(O)c2)O[C@@H](c2ccc(O)c(O)c2)[C@@H]1O
NHDF [2]
  Activity: Non-Toxic

## COc1cc(CC[C@@H]2CC(=O)c3ccccc3O2)ccc1O
NHDF [1]; time 3.0 day
  Activity: Active
NHDF [2]
  Activity: Non-Toxic

## O=C1c2c(cc(O)c3c2O[C@H](c2ccc(O)cc2)[C@H]3c2cc(O)cc(O)c2)O[C@@H](c2ccc(O)c(O)c2)[C@@H]1O
NHDF [2]
  Activity: Non-Toxic

## O=C1c2c(cc(O)c3c2O[C@H](c2ccc(O[C@@H]4O[C@H](CO)[C@@H](O)[C@H](O)[C@H]4O)cc2)[C@H]3c2cc(O)cc(O)c2)O[C@@H](c2ccc(O)c(O)c2)[C@@H]1O
NHDF [2]
  Activity: Non-Toxic

## COc1cc(CCc2oc3ccccc3c(=O)c2OC)ccc1O
NHDF [2]
  Activity: Non-Toxic

## COc1c(CCc2cccc(O)c2)oc2ccccc2c1=O
NHDF [2]
  Activity: Non-Toxic

## O=C1c2c(cc(O)c3c2O[C@H](c2ccc(O)cc2)[C@H]3c2cc(O)cc(O)c2)O[C@@H](c2ccc(O)cc2)[C@@H]1O
NHDF [2]
  Activity: Non-Toxic

## O=C1c2c(cc(O)c3c(-c4cc(O)cc(O)c4)c(-c4ccc(O)cc4)oc23)O[C@@H](c2ccc(O)cc2)[C@@H]1O
[3]
  inhibition: 32%
NHDF [1]; time 3 day
  Activity: 34%
NHDF [2]
  Activity: Non-Toxic

## COc1cc(CCc2oc3ccccc3c(=O)c2O)ccc1O
NHDF [2]
  Activity: Non-Toxic
